Tested on: IL-23 induced ear swelling
Assay: IL-23 induced ear swelling model for psoriasis
Assay type: in vivo
Settings: C57B1/6 mice; sub-cutaneous, therapeutic dosing after 3 intradermal injections of IL-23; calipers; FIG. 2
Description: An intradermal injection of IL-23 into the ear of mice can cause a swelling of the ear which is CCR6 dependent (Hedrick M. N et. al. J. Clinical Investigation. 2009. 119:2317-2329). C57B1/6 mice were given intradermal injections of IL-23 in the right ear. PBS was given by intradermal injection into the left ear as a control. Compound 1.023 (synthesized in example 6) was dosed by sub-cutaneous route. The compound was dosed in a therapeutic manner, after 3 intradermal injections of IL-23 and upon initiation of moderate ear swelling. The degree of swelling was measured using calipers.

## COc1ccc(C(=O)O)c(N2Cc3c(Cl)ccc(Nc4c(N[C@@H](c5cc(C)c(C)o5)C(C)(C)C)c(=O)c4=O)c3C2=O)c1 [Compound 1.023, 2-[4-chloro-7-[[2-[[(1R)-1-(4,5-dimethyl-2-furyl)-2,2-dimethyl-propyl]amino]-3,4-dioxo-cyclobuten-1-yl]amino]-1-oxo-isoindolin-2-yl]-4-methoxy-benzoic acid]
  IL-23 induced ear swelling: completely inhibit IL-23 induced ear swelling
